In patent EP2416773B1, “CHECKPOINT KINASE 1 INHIBITORS FOR POTENTIATING DNA DAMAGING AGENTS” (Array Biopharma, Inc., priority 2009, dated 2010):
Like-named read-outs stand apart in the source and are kept apart here.

Experiments:
[1] = test system: subcutaneous HT-29 xenografts; assay: Tumor growth inhibition experiment with tolerability, CPT11 and Compound 1, simultaneous or 24 hour delay (Example 3); type: in vivo; conditions: single agent; CPT11 100 mg/kg IP single dose; Compound 1 50 mg/kg PO BID 3 consecutive days
Experimental: (§1) Female nude mice were inoculated subcutaneously with 5 X 10^6 HT-29 tumor cells in 1X PBS (100 µL). Twelve days later, mice were randomized into groups of 6 with an average tumor volume in each group of approximately 250 mm^3. […] Tumor size and animal body weight were measured over the course of the study on the days indicated with data points in Figure 5. Tumor volume was calculated using the formula volume = (width^2 X length)/2.

[2] = test system: subcutaneous HT-29 xenografts; type: in vivo; conditions: single agent; CPT11 100 mg/kg IP Q10Dx2; Compound 2 25 mg/kg PO BID
Experimental: as §1, with “in IX” for “in 1X”, “of 8” for “of 6”, “approximately 215” for “approximately 250”, “Figure 6.” for “Figure 5.”, “the formula:” for “the formula”

[3] = Tolerability of CPT11 and Compound 2 with 12, 24 or 48 hour delay in naive mice (Example 4); type: in vivo; conditions: single agent; CPT11 100 mg/kg IP Q10Dx2; Compound 2 25 mg/kg PO BID 3 days per cycle
[4] = test system: subcutaneous HT-29 xenografts; assay: Tumor growth inhibition experiment, CPT11 and Compound 5 (Example 12); type: in vivo; conditions: for Growth Delay / Maximum % Body Weight Loss: single agent, CPT11 100 mg/kg IP Q10Dx2, Compound 5 PO BID 3 days, dose not given
Experimental: Female nude mice were inoculated subcutaneously with 4 X 10^6 HT-29 tumor cells in 1X PBS (100 µL). Twelve days later, mice were randomized into groups of 7 with an average tumor volume in each group of approximately 200 mm^3. […] Tumor size and animal body weight were measured over the course of the study on the days indicated with data points in Figure 13. Tumor volume was calculated using the formula: volume = (width^2 x length)/2. No mortalities occurred over the course of this study.

[5] = test system: subcutaneous HT-29 xenografts; assay: Tumor growth inhibition experiment, CPT11 and Compound 2 (Example 11); type: in vivo, nude mice; conditions: in combination with CPT-11; Compound 2 10 or 25 mg/kg PO BID
Experimental: as §1, with “µL). Fourteen” for “µL). Twelve”, “of 8” for “of 6”, “approximately 260” for “approximately 250”, “Figure 12.” for “Figure 5.”, “the formula: volume=” for “the formula volume =”, “(width^2 x” for “(width^2 X”

[6] = Compound 2 exposure in HT-29 tumor bearing mice after CPT11 (Example 6); type: in vivo, nude mice; conditions: Compound 2 25 mg/kg PO, from 24 hours after CPT11 100 mg/kg; single dose vs 3 consecutive days BID; t-test > 0.05
[7] = test system: subcutaneous HT-29 xenografts; type: in vivo; conditions: single agent; gemcitabine 140 mg/kg IP Q7Dx2; Compound 2 PO BID 3 days, dose not given
Experimental: Female nude mice were inoculated subcutaneously with 5 X 10^6 HT-29 tumor cells in IX PBS (100 µL). Fourteen days later, mice were randomized into groups of 8 with an average tumor volume in each group of approximately 260 mm^3. Sorted animals were administered gemcitabine (140 mg/kg; IP) on a Q7Dx2 cycles schedule. Compound 2 (10 or 25mg/kg: PO, BID) administration was initiated 24 hours post gemcitabine and endured for 3 days as indicated. Tumor size and animal body weight were measured over the course of the study on the days indicated with data points in Figure 9. Tumor volume was calculated using the formula: volume = (width^2 X length)/2. No mortalities occurred over the course of this study.

phospho-cdc2 = assay: Inhibition of CPT11 induced phosphorylation of cdc2 in HT-29 tumors, immunoblot (Example 7); type: in vivo, nude mice; conditions: extended dosing: 5, 10 or 25 mg/kg PO BID 3 consecutive days from 24 hours after CPT11 100 mg/kg IP; tumors harvested 96 hours post CPT11
Experimental: Female nude mice were inoculated subcutaneously with 5 X 10^6 HT-29 tumor cells in IX PBS (100 µL). Twenty nine days later, mice were randomized into groups of 3 with an average tumor volume in each group of approximately 500 mm^3. […] Compound 5 was given as a single dose at 25 mg/kg, or alternatively 5, 10, or 25 mg/kg doses were given for 3 consecutive days on BID schedules. […] Phosphorylation of cdc2 was assessed by immunoblot and normalized to total ERK expression. Results are expressed as POC.

[8] = test system: subcutaneous HT-29 xenografts; type: in vivo; conditions: for Growth Delay: gemcitabine 120 mg/kg IP Q7Dx3
Experimental: Female nude mice were inoculated subcutaneously with 5 X 10^6 HT-29 tumor cells in IX PBS (100 µL). Fourteen days later, mice were randomized into groups of 7 with an average tumor volume in each group of approximately 200 mm^3. Sorted animals were administered gemcitabine (120 mg/kg; IP) on a Q7Dx3 cycles schedule. Compound 5 (5, 10 or 25mg/kg; PO. BID) administration was initiated 24 hours post gemcitabine and endured for 3 days as indicated. Tumor size and animal body weight were measured over the course of the study on the days indicated with data points in Figure 10. Tumor volume was calculated using the formula: volume = (width^2 X length)/2. No mortalities occurred over the course of this study.

[9] = test system: MiaPaCa2 pancreatic carcinoma xenografts; type: in vivo; conditions: for % Tumor Growth Inhibition / Growth Delay: single agent, gemcitabine 120 mg/kg IP Q7Dx3, Compound 5 given as 10 mg/kg in table
Experimental: female nude mice were inoculated subcutaneously with 7 X 10^6 MiaPaCa2 tumor cells in a 1:1 1X PBS and matrigel suspension (100 µL). Fifteen days later, mice were randomized into groups of 7 with an average tumor volume in each group of approximately 315 mm^3. Sorted animals were administered gemcitabine (120 mg/kg; IP) on a Q7Dx3 cycles schedule. […] Tumor size and animals body weight were measured over the course of the study on the days indicated with data points in Figure 11. Tumor volume was calculated using the formula: volume = (width^2 X length)/2. No mortalities occurred over the course of this study.

[10] = single agent, Compound 5 10 mg/kg PO BID 3 days

Row | Compound | Maximum % Body Weight Loss [1] | Growth Delay [2] [days] | % Mortality [3] [%] | Maximum % Body Weight Loss [3] | Growth Delay [4] [days] | Maximum % Body Weight Loss [4] | Growth Delay [7] [days] | Growth Delay [8, 10] [days] | % Tumor Growth Inhibition [9] | Growth Delay [9] [days] | further results
1 | CCc1c2c(nc3ccc(OC(=O)N4CCC(N5CCCCC5)CC4)cc13)-c1cc3c(c(=O)n1C2)COC(=O)[C@]3(O)CC [CPT11, irinotecan, reference compound] | 3.9, Day 13% | 16 | 0 | 3.4. Day 14% | 16.6 | 6.3, Day 18% | – | – | – | – | % Mortality [1]: 0%
2 | N[C@@H]1CCCN(c2c(Br)cnc3[nH]cc(NC(=O)c4cccnc4)c23)C1 [Compound 1, (R)-N-(4-(3-aminopiperidin-1-yl)-5-bromo-1H-pyrrolo[2,3-b]pyridin-3-yl)nicotinamide] | 3.9, Day 13% | – | – | – | – | – | – | – | – | – | –
3 | CC(C)C(=O)Nc1c[nH]c2ncc(Br)c(N3CCC[C@@H](N)C3)c12 [Compound 2, (R)-N-(4-(3-aminopiperidin-1-yl)-5-bromo-1H-pyrrolo[2,3-b]pyridin-3-yl)isobutyramide] | – | 1.8 | 0 | 0.3, Day 17% | – | – | 4.78 | – | – | – | inhibition of tumor growth [5]: dose related inhibition of tumor growth; exposure following a single dose or administration for 3 days [6]: not statistically_different; Maximum % Body Weight Loss [2]: 7.2, Dav 3%
4 | N[C@@H]1CCCN(c2c(Br)cnc3[nH]cc(NC(=O)C4CC4)c23)C1 [Compound 5, (R)-N-(4-(3-aminopiperidin-1-yl)-5-bromo-1H-pyrrolo[2,3-b]pyridin-3-yl)cyclopropanecarboxamide] | – | – | – | – | 7.7 | 2.5, Dav 18% | – | 5.7 | 25,5% | 6.1 | inhibition of CPT11 induced phospho-cdc2 (phospho-cdc2): dose-related inhibition; inhibition of tumor growth ([8]; in combination with gemcitabine, Compound 5 5, 10 or 25 mg/kg PO BID): dose related inhibition of tumor growth; % Regression [8, 10]: 31.6%; tumor growth ([9]; in combination with gemcitabine, MiaPaCa2 pancreatic carcinoma xenografts): inhibits tumor growth; inhibition of tumor growth ([4]; in combination with CPT-11, Compound 5 5, 10 or 25 mg/kg PO BID): dose related inhibition of tumor growth
5 | Nc1ccn([C@@H]2O[C@H](CO)[C@@H](O)C2(F)F)c(=O)n1 [Gemcitabine, gemcitabine, reference compound] | – | – | – | – | – | – | 4.39 | 11.5 | 6.6% | 2.2 | –
